Reference: patent US20250163045A1, “COMPOUNDS FOR TREATMENT OF HAIR LOSS” (Pelage Pharmaceuticals, Inc., priority 2021, published 2025)

Assay: Solubility of compounds in topical formulations (stirred, visual dissolution)
Assay type: physicochemical
Details: for Solubility in Non-Aqueous Formulation: Non-Aqueous Formulation (50% PEG400, 15% Transcutol P, 25% ethanol, 10% DMSO)
From the text: Several formulations were used to evaluate the solubility of the various compounds. Although any suitable pharmaceutical formulation may be used for the compounds, formulations such as those described below are suitable for administration of the compounds to the hair or scalp of a mammal such as a human being. The formulation may be sterilized before applying to a mammal such as a human being. • A Non-Aqueous Formulation, containing 50% PEG400, 15% Transcutol® P, 25% ethanol, and 10% DMSO was manufactured using the following general process: 10 g of PEG400, 3 g of Transcutol® P, 5 g of ethanol, and 2 g of DMSO were added to a clear vial. The mixture was then stirred using a stir bar until homogenous. • Aqueous Formulation 1, containing 10% PEG400, 20% Transcutol® HP, 45% ethanol, and 25% water was manufactured using the following general process: in a large amber pyrex bottle, 1) 19.98 g of PEG400 was added; 2) 40.07 g of Transcutol® HP was added; 3) 90 g of ethanol was added; 4) 50.03 g of water was added; and 5) the mixture was stirred using a magnetic stir bar for 30 mins at 800 rpm. • Aqueous Formulation 2, containing 10% propylene glycol, 20% Transcutol® HP, 45% ethanol, and 25% water was manufactured using the following process: in a large amber pyrex bottle, 1) 10.03 g propylene glycol was added; 2) 20.03 g Transcutol® HP was added; 3) 44.99 g ethanol was added; 4) 25.02 g water was added; and 5) the mixture was stirred using a magnetic stir bar for 30 mins at 800 rpm.
The solubilities of several compounds shown below in the described formulations are indicated below.
• Aqueous Formulation 1: 0.5 mg Reference Compound and 9.9996 g Aqueous Formulation 1 (0.005% w/w) were stirred at 600 RPM for 1 hour. The Reference Compound remained undissolved in 1 hour; • Aqueous Formulation 2: 0.5 mg Reference Compound and 10.0006 g Aqueous Formulation 2 (0.005% w/w) were stirred at 600 RPM for 1 hour. […]

| Compound | Solubility in Non-Aqueous Formulation (dissolved / remained undissolved in 1 hour) [% w/w] | Solubility in Non-Aqueous Formulation (remained undissolved in 24 hours) [% w/w] | Solubility in Aqueous Formulation 1 (Aqueous Formulation 1 (10% PEG400, 20% Transcutol HP, 45% ethanol, 25% water), stirred at 600 RPM for 1 hour) [% w/w] |
| --- | --- | --- | --- |
| N#C/C(=C\c1cn(-c2cccc(C(F)(F)F)c2)c2ncccc12)C(=O)O [Compound 3, (E)-2-cyano-3-(1-(3-(trifluoromethyl)phenyl)-1H-pyrrolo[2,3-b]pyridin-3-yl)acrylic acid] | ≥ 0.1 | < 0.2 | – |
| N#C/C(=C\c1cn(Cc2cc(C(F)(F)F)cc(C(F)(F)F)c2)c2ncccc12)C(=O)O [Reference Compound, (E)-3-(1-(3,5-bis(trifluoromethyl)benzyl)-1H-pyrrolo[2,3-b]pyridin-3-yl)-2-cyanoacrylic acid, reference compound] | – | – | < 0.005 |
